Reference: patent US10183038B2, “Method for preventing and treating renal disease” (L & F Research LLC, priority 2010, dated 2019)

Experiments:
LPS induced proteinuria = LPS induced proteinuria in mice; type: in vivo; details: 4000 mg/kg intravenously 1 hour prior to LPS, urines 30 hours after first LPS injection, p<0.05 LPS+CD versus LPS
Protocol: FIG. 6A-FIG. 6B: Depicts that CD partially prevents LPS induced podocyte damage. FIG. 6A: Depicts the results when HPBCD was administered intravenously (4000 mg/kg) 1 hour prior to LPS injection (200 ug/20 g mouse intraperitoneally). Urines were collected […] after LPS injection and analyzed for albumin/creatinine ratio by ELISA. p<0.05 when comparing LPS+CD versus LPS. FIG. 6B: Depicts that CD prevented LPS induction of MyD88 in isolated glomeruli in vivo. Referring to FIG. 6A, the antiproteinuric effects of CD were tested in an established experimental model of LPS induced proteinuria. Three mice per group were utilized. Mice were left untreated (CTRL), or received one injection of 4000 mg/kg Hydroxypropyl-beta-cyclodextrin (CD), or two injections of 200 μg LPS 24 hours apart (LPS), or received 4000 mg/kg of CD 1 hour prior to LPS treatment (LPS+CD). Urines were collected at 30 hours after the first LPS injection and analyzed for albumin and creatinine content by ELISA. Albuminuria was determined as the ratio between albumin and creatinine (μg/mg).

[1] = system: human podocytes exposed to DM w DN sera; assay: Human podocytes exposed to sera of diabetic patients with DN (blebbing, cholesterol, apoptosis); type: cell-based; details: normal human podocytes exposed to sera of patients with diabetic nephropathy; cholesterol depletion with Methyl-beta-cyclodextrin
Protocol: DN is a chronic progressive disease that affects a sizable subset of patients with diabetes. Despite the identification of multiple risk factors that contribute to the development of DN, it has remained difficult to identify the subset of patients with diabetes at risk for DN. This led to testing to determine if an in vitro prediction assay could be developed. For this purpose, the following experiments were conducted. Non-identifiable samples of patient sera were obtained. Samples consisted of serum collected from 10 patients with diabetes and macroalbuminuria (DM w DN) and 10 diabetic normoalbuminuric patients (DM w/o DN) well matched for HgA1C (7.9%), total cholesterol levels and the duration of diabetes. Normal human sera (NHS) from 10 age and sex matched healthy subjects were also utilized as controls. Differentiated human podocytes were serum starved for 24 hours and then exposed to 4% serum of NHS, DM w/o DN, DM w DN for 24 hours. […] Total cholesterol was also determined with an enzymatic reaction. Total cholesterol was increased in podocytes treated with DM w DN when compared to DM w/o DN and NHS (FIG. 3D, *p<0.05), a phenomenon that was prevented by CD (FIG. 3D, #p<0.05). Cell blebbing was predictive of DN, as sera collected from patients before progressing to DN at the time they were normoalbuminuric already caused cell blebbing (FIG. 3E).

CD19+ cells = assay: CD19 count in transplanted FSGS patients after rituximab; type: in vivo, human; details: N = 27
Text: W=white, B=black, M=male, F=female, ESRD=end stage renal disease, LD=living donor, DD=deceased donor. ΔeGFR: variation of eGFR. *p<0.05.

[2] = system: patients at high risk for recurrent FSGS after transplantation; assay: Clinical outcome after kidney transplantation in patients at high risk for recurrent FSGS, rituximab vs historical controls; type: in vivo, human
SMPDL-3B [3] = target: T1, SMPDL-3B (Homo sapiens, UniProt Q92485); details: cited from earlier work
T1 sequence (Q92485 19-455): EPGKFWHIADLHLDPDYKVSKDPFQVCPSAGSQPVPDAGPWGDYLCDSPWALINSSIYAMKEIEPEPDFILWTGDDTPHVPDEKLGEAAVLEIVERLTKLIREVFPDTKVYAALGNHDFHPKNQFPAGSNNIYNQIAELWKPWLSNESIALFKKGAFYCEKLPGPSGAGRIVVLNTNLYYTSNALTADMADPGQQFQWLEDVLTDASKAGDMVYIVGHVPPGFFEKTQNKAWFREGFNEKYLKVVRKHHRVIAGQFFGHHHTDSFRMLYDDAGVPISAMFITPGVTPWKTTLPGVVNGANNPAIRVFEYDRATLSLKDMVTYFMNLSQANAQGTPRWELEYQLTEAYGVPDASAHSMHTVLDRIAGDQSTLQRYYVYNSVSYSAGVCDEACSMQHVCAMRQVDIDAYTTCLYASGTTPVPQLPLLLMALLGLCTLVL

SMPDL-3b [4] = assay: SMPDL-3b expression in podocytes cultured with FSGS patient sera; type: cell-based, human; details: recurrent FSGS (FIG. 2)
Protocol: FIG. 2A: Depicts low- and high-power images of immunoperoxidase staining for SMPDL-3b and synaptopodin in post-reperfusion biopsies of patients with recurrent (REC) and non-recurrent (NON-REC) FSGS. Arrows point to podocytes. Scale bars: 25 μm top and 15 μm bottom. […] All kidney biopsies were obtained prior to initiation of treatment with rituximab. An average of 13±4 glomeruli per patient were analyzed. *p<0.05, unpaired Student's t test. Data are mean±s.d. […] Data are mean±s.d. *p<0.05 and **p<0.01 by one-way ANOVA. […] Data are mean±s.d. *p<0.05 and **p<0.01 by one-way ANOVA. […] Data are mean±s.d. *p<0.05 and **p<0.01 by one-way ANOVA. […] Data are mean±s.d. *p<0.05 and **p<0.01 by one-way ANOVA.
(A) Low- and high-power images of immunoperoxidase staining for SMPDL-3b and synaptopodin in post-reperfusion biopsies of patients with recurrent (REC) and non-recurrent (NON-REC) FSGS. Arrows point to podocytes. […] All kidney biopsies were obtained prior to initiation of treatment with rituximab. […] (G) ASMase activity per μg of total lysate protein, as evaluated by ELISA.

[5] = number of patients (%), N = 27, one dose of rituximab (375 mg/m^2) within 24 hours of transplant

For `CC(O)COC[C@H]1O[C@@H]2O[C@H]3[C@H](O)[C@@H](O)[C@@H](O[C@H]4[C@H](O)[C@@H](O)[C@@H](O[C@H]5[C@H](O)[C@@H](O)[C@@H](O[C@H]6[C@H](O)[C@@H](O)[C@@H](O[C@H]7[C@H](O)[C@@H](O)[C@@H](O[C@H]8[C@H](O)[C@@H](O)[C@@H](O[C@H]1[C@H](O)[C@H]2O)O[C@@H]8COCC(C)O)O[C@@H]7COCC(C)O)O[C@@H]6COCC(C)O)O[C@@H]5COCC(C)O)O[C@@H]4COCC(C)O)O[C@@H]3COCC(C)O` (stereo partly drawn) [Hydroxypropyl-beta-cyclodextrin], the “LPS induced proteinuria (albumin/creatinine ratio by ELISA)” value (LPS induced proteinuria) was “protects from Lipopolysaccharide (LPS) induced proteinuria”.

With Methyl-beta-cyclodextrin the cell blebbing [1] was “prevents”.

With rituximab the “CD 19 count” value (CD19+ cells; Week 0) was 360 ± 223, the “CD 19 count” value (CD19+ cells; Week 0.5) was 107 ± 115 and the “CD 19 count” value (CD19+ cells; Week 1) was 45 ± 31. For the same compound, the “CD 19 count” value (CD19+ cells; Week 2) was 16 ± 23, the “CD 19 count” value (CD19+ cells; Week 3) was 5 ± 6 and the “CD 19 count” value (CD19+ cells; Week 4) was 6 ± 7. For the same compound, the Graft survival ([2]; 6 months, N = 27) was 100%, the Graft survival ([2]; 12 months, N = 27) was 95.8% and the “difference in graft survival between groups” value ([2]; at 6 and 12 months, rituximab group vs control group) was “no significant difference”. For the same compound, the “incidence of recurrent nephrotic range proteinuria and need for plasmapheresis” value ([2]; between day 3 and 30 after transplantation, rituximab group vs control group) was “significantly lower”, the “Nephrotic proteinuria w/i 1 Mo” value [2, 5] was 7 (26%) and the “Plasmapheresis w/I 1 Mo” value [2, 5] was 8 (30%). The “binding to SMPDL-3B” value (SMPDL-3B [3]) was “found to bind SMPDL-3B” and the “downregulation of SMPDL-3b” value (SMPDL-3b [4]) was “prevents the downregulation of SMPDL-3b”.
